pEC50: −log10 of the molar value. Read-outs that look alike come from different tables or passages of the source.
Biological target: T1, F508del in NIH 3T3 cells (Homo sapiens, UniProt P13569, DEL508-508)
T1 construct: expressed in transfected cells
Assay: 3T3 assay: membrane potential optical assay for F508del correction
Type: cell-based
Summary of the method: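 NIH 3T3 mouse fibroblasts stably expressing F508del were incubated with corrector compounds at a range of concentrations for 16–24 h at 37 °C, then loaded with a voltage-sensing redistribution dye. Channel activity was read as membrane-potential change on FLIPR after a single addition of forskolin with a chloride-free (gluconate) bath creating a Cl⁻ gradient.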

[1] = NIH3T3, NIH 3T3 cells, F508del, read-out: 3T3 Max Activity (%)
[2] = NIH 3T3 cells, F508del, read-out: 3T3 EC50
[3] = NIH3T3, read-out: 3T3 Max Activity (%)

T1 sequence (P13569 with tags, fused parts or gaps DEL508-508): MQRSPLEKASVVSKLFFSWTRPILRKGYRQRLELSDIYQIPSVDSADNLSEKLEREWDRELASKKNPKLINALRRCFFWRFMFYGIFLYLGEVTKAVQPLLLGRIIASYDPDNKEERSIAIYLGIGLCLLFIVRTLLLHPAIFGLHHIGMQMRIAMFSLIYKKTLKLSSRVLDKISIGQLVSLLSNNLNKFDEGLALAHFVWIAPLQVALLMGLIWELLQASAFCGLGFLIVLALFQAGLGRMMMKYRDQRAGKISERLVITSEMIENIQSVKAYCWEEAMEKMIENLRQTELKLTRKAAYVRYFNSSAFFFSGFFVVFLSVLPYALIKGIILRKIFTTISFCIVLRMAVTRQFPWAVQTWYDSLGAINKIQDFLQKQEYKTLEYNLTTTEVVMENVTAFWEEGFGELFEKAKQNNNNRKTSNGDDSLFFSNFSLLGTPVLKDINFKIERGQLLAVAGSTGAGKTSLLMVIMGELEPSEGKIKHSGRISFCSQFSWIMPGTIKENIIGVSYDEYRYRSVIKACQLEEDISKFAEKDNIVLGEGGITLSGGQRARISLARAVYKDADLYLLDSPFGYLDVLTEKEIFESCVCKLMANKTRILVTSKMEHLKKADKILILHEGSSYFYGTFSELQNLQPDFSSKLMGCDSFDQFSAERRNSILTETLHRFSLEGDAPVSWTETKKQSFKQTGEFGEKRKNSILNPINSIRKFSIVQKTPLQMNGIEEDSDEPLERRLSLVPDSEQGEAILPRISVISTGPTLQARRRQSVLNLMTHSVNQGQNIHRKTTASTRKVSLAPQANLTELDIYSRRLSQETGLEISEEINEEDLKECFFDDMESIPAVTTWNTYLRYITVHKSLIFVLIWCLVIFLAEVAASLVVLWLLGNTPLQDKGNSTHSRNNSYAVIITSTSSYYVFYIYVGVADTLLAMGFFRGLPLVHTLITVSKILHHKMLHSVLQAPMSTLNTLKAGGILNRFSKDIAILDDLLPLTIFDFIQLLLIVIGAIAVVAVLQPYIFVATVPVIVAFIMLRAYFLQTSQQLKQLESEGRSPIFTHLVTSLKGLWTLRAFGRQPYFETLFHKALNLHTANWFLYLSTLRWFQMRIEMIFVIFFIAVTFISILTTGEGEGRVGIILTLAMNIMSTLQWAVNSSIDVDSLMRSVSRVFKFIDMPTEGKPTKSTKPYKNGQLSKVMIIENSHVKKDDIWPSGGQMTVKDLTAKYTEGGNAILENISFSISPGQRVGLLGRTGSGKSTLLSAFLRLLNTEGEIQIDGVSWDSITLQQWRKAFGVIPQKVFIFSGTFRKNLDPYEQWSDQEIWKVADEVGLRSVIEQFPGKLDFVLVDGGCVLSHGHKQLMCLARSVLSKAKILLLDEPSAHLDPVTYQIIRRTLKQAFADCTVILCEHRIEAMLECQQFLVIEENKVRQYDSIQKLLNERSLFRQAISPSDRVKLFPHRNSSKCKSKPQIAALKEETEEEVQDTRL

| Emax [1] | pEC50 [2] | Structure (SMILES) | pEC50 | Emax [3] |
| --- | --- | --- | --- | --- |
| > 60% | 4.52 to 5.52 | CC(C)c1sc(NS(=O)(=O)c2ccccc2)nc1-c1ccccc1 [Compound 17, N-(5-isopropyl-4-phenyl-thiazol-2-yl)benzenesulfonamide] | – | – |
| > 60% | > 6.00 | Cc1cc(C)c(-n2nc(NS(=O)(=O)c3ccccc3)cc2C2CCCCC2)c(C)c1 [Compound 64, N-[5-cyclohexyl-1-(2,4,6-trimethylphenyl)pyrazol-3-yl]benzenesulfonamide] | – | – |
| 30 to 60% | – | Nc1cccc(S(=O)(=O)Nc2nn(-c3ccccc3)cc2Cc2ccccc2)c1 [Compound 73, 3-amino-N-(4-benzyl-1-phenyl-pyrazol-3-yl)benzenesulfonamide] | – | – |
| 30 to 60% | > 6.00 | Cc1ccc(-c2cc(NS(=O)(=O)c3ccccc3)nn2-c2c(C)cc(C)cc2C)cc1 [Compound 61, N-[5-(p-tolyl)-1-(2,4,6-trimethylphenyl)pyrazol-3-yl]benzenesulfonamide] | – | – |
| < 30% | – | Cn1cc(S(=O)(=O)Nc2nn(-c3ccccc3)cc2Cc2ccccc2)cn1 [Compound 72, N-(4-benzyl-1-phenyl-pyrazol-3-yl)-1-methyl-pyrazole-4-sulfonamide] | – | – |
| < 30% | – | CCCN(C)C(=O)c1sc(NS(=O)(=O)c2ccccc2)nc1-c1ccccc1 [Compound 38, 2-(benzenesulfonamido)-N-methyl-4-phenyl-N-propyl-thiazole-5-carboxamide] | – | – |
| > 60% | 4.52 to 5.52 | Cc1sc(NS(=O)(=O)c2ccccc2)nc1-c1ccccc1 [Compound 23, N-(5-methyl-4-phenyl-thiazol-2-yl)benzenesulfonamide] | – | – |
| > 60% | 5.52 to 6.00 | Cc1ccc(-c2ccc(NS(=O)(=O)c3ccccc3)nc2-c2ccc(C)cc2)cc1 [Compound 144, N-[5,6-bis(p-tolyl)-2-pyridyl]benzenesulfonamide] | – | – |
| > 60% | 5.52 to 6.00 | Cc1ccc(NS(=O)(=O)c2ccccc2)nc1-c1cccc(C)c1C [Compound 137, N-[6-(2,3-Dimethylphenyl)-5-methyl-2-pyridyl]benzenesulfonamide] | – | – |
| < 30% | – | CC(C)=Cc1cn(Cc2ccccc2)nc1NS(=O)(=O)c1ccccc1 [Compound 104, N-[1-benzyl-4-(2-methylprop-1-enyl)pyrazol-3-yl]benzenesulfonamide] | – | – |
| < 30% | – | O=S(=O)(Nc1nn(-c2cccc(Cl)c2)cc1C1CCCCC1)c1ccccc1 [Compound 83, N-[1-(3-chlorophenyl)-4-cyclohexyl-pyrazol-3-yl]benzenesulfonamide] | – | – |
| > 60% | 4.52 to 5.52 | Cc1cc(NS(=O)(=O)c2ccccc2)nc(-c2ccc(C)c(C)c2)c1 [Compound 153] | – | – |
| 30 to 60% | 4.52 to 5.52 | COC(=O)Cc1nc(NS(=O)(=O)c2ccccc2)sc1-c1ccccc1 [Compound 40, methyl 2-[2-(benzenesulfonamido)-5-phenyl-thiazol-4-yl]acetate] | – | – |
| – | – | COc1cccc(-c2cc(NS(=O)(=O)c3ccccc3)nn2-c2c(C)cc(C)cc2C)c1 [Compound 50, N-[5-(3-methoxyphenyl)-1-(2,4,6-trimethylphenyl)pyrazol-3-yl]benzenesulfonamide] | 5.52 to 6.00 | > 60% |
| > 60% | 5.52 to 6.00 | Cc1cc(NS(=O)(=O)c2ccccc2)nc(-c2cc(C)ccc2C)c1 [Compound 135, N-[6-(2,5-Dimethylphenyl)-4-methyl-2-pyridyl]benzenesulfonamide] | – | – |
| > 60% | 5.52 to 6.00 | O=S(=O)(Nc1cc(Oc2ccccc2)cc(Oc2ccccc2)n1)c1ccccc1 [Compound 133, N-(4,6-Diphenoxy-2-pyridyl)benzenesulfonamide] | – | – |
| 30 to 60% | – | O=C(O)c1sc(NS(=O)(=O)c2ccccc2)nc1-c1ccccc1 [Compound 42, 4-phenyl-2-(phenylsulfonamido)thiazole-5-carboxylic acid] | – | – |

| Emax [1] | pEC50 [2] | Structure (SMILES) | pEC50 | Emax [3] |
| --- | --- | --- | --- | --- |
| 30 to 60% | > 6.00 | O=S(=O)(Nc1nc(Oc2ccccc2)nc(-c2ccccc2)n1)c1ccccc1 [Compound 125, N-(4-phenoxy-6-phenyl-1,3,5-triazin-2-yl)benzenesulfonamide] | – | – |
| < 30% | – | Cc1ccc(-n2nc(NS(=O)(=O)c3ccccc3)cc2C)cc1 [Compound 100, N-[5-methyl-1-(p-tolyl)pyrazol-3-yl]benzenesulfonamide] | – | – |
| – | – | O=S(=O)(Nc1nn(-c2cccc(Cl)c2)cc1-c1cccc(Cl)c1)c1ccccc1 [Compound 70, N-[1,4-bis(3-chlorophenyl)pyrazol-3-yl]benzenesulfonamide] | > 6.00 | 30 to 60% |
| > 60% | 4.52 to 5.52 | Cc1cc(C)cc(-c2nc(NS(=O)(=O)c3ccccc3)ccc2C)c1 [Compound 149] | – | – |
| 30 to 60% | 5.52 to 6.00 | COc1cccc(-c2cn(-c3cccc(Cl)c3)nc2NS(=O)(=O)c2ccccc2)c1 [Compound 91, N-[1-(3-chlorophenyl)-4-(3-methoxyphenyl)pyrazol-3-yl]benzenesulfonamide] | – | – |
| < 30% | – | CC(C)(C)c1nc(NS(=O)(=O)c2ccccc2)sc1C#N [Compound 45, N-(4-tert-butyl-5-cyano-thiazol-2-yl)benzenesulfonamide] | – | – |
| > 60% | 5.52 to 6.00 | Cc1cc(C)cc(-c2nc(NS(=O)(=O)c3ccccc3)cc(C)c2C)c1 [Compound 155] | – | – |
| 30 to 60% | 5.52 to 6.00 | COc1ccccc1-c1cn(-c2cccc(Cl)c2)nc1NS(=O)(=O)c1ccccc1 [Compound 92, N-[1-(3-chlorophenyl)-4-(2-methoxyphenyl)pyrazol-3-yl]benzenesulfonamide] | – | – |
| > 60% | > 6.00 | Cc1cc(C)c(-n2nc(NS(=O)(=O)c3ccccc3)cc2-c2cccc(Cl)c2)c(C)c1 [Compound 57, N-[5-(3-chlorophenyl)-1-(2,4,6-trimethylphenyl)pyrazol-3-yl]benzenesulfonamide] | – | – |
| 30 to 60% | 5.52 to 6.00 | O=S(=O)(Nc1cc(OCc2ccccc2)nc(-c2ccccc2)n1)c1ccccc1 [Compound 132, N-(6-benzyloxy-2-phenyl-pyrimidin-4-yl)benzenesulfonamide] | – | – |
| 30 to 60% | – | O=S(=O)(Nc1ncc(Cc2ccccc2)s1)c1ccccc1 [Compound 32, N-[5-benzyl-thiazol-2-yl]benzenesulfonamide] | – | – |
| < 30% | – | O=S(=O)(Nc1nn(-c2cccc(Cl)c2)cc1-c1ccccc1Cl)c1ccccc1 [Compound 89, N-[4-(2-chlorophenyl)-1-(3-chlorophenyl)pyrazol-3-yl]benzenesulfonamide] | – | – |
| < 30% | – | O=S(=O)(Nc1nn(Cc2ccccc2)cc1C1CCCCC1)c1ccccc1 [Compound 103, N-(1-benzyl-4-cyclohexyl-pyrazol-3-yl)benzenesulfonamide] | – | – |
| 30 to 60% | 4.52 to 5.52 | O=C(NCc1ccccc1)c1sc(NS(=O)(=O)c2ccccc2)nc1-c1ccccc1 [Compound 14, 2-(benzenesulfonamido)-N-benzyl-4-phenyl-thiazole-5-carboxamide] | – | – |
| 30 to 60% | > 6.00 | Cc1cc(C)c(-n2nc(NS(=O)(=O)c3ccccc3)cc2-c2cccc(Oc3ccccc3)c2)c(C)c1 [Compound 54, N-[5-(3-phenoxyphenyl)-1-(2,4,6-trimethylphenyl)pyrazol-3-yl]benzenesulfonamide] | – | – |
| < 30% | – | CC(C)(C)NC(=O)c1sc(NS(=O)(=O)c2ccccc2)nc1-c1ccccc1 [Compound 36, 2-(benzenesulfonamido)-N-tert-butyl-4-phenyl-thiazole-5-carboxamide] | – | – |

From patent US20230373939A1 (VERTEX PHARMACEUTICALS INCORPORATED, priority 2020, published 2023)
